Test results as given in patent US11214803B2, “Modulators of YAP1 expression” (Ionis Pharmaceuticals, Inc., priority 2019, dated 2022).
Strand notation (5' to 3'): a small letter for the sugar, then the base; units joined by * are phosphorothioate-linked, units joined directly phosphodiester-linked; [ ] holds rarer units or linkages, { } end groups; capitals alone tell only the bases. e = 2'-O-(2-methoxyethyl) (MOE); k = constrained ethyl (cEt); [5mC] = 5-methylcytosine; d = 2'-deoxy (DNA); m = 2'-O-methyl

What follows are substances tested on Yap1 mRNA (assay: Antisense inhibition of human Yap1 in SNU-449 cells by modified oligonucleotides, single dose (Example 5, RTS36584)). Settings: Table 39; SNU-449 cells, 10,000 cells per well, free uptake, 2,000 nM oligonucleotide, approx. 48 hours; RTS36584; normalized to RIBOGREEN; Yap1 mRNA relative to untreated control.
Format: cell-based
Outline: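 Values are % of untreated control: Yap1 mRNA by quantitative RT-PCR (RTS36584), normalized to RIBOGREEN total RNA. Oligonucleotides were dosed at 2,000 nM, free uptake, in SNU-449 cells, with roughly 48 h exposure before RNA isolation.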

Substance	YAP1 (% UTC)
1198407 (kT*dG*d[5mC]*dT*dT*dT*dG*dG*dA*dA*dG*kA*eT*k[5mC]*eT*kG; antisense) [Compound 1198407]	23 % UTC
1198403 (kT*dT*dG*dG*dA*dA*dG*dA*dT*d[5mC]*dT*kG*eA*kA*eA*k[5mC]) [Compound 1198403]	54 % UTC
1198450 (kT*dA*dA*dG*dT*dA*dA*dG*dG*dT*dT*kT*e[5mC]*k[5mC]*e[5mC]*kA; antisense) [Compound 1198450]	42 % UTC
1198402 (kG*dG*dA*dA*dG*dA*dT*d[5mC]*dT*dG*dA*kA*eA*k[5mC]*eT*k[5mC]; antisense) [Compound 1198402]	32 % UTC

Same assay, conditions: Table 40 (separate experiment); SNU-449 cells, 10,000 cells per well, free uptake, 2,000 nM oligonucleotide, approx. 48 hours; RTS36584; normalized to RIBOGREEN; Yap1 mRNA relative to untreated control

Substance	YAP1 (% UTC)
1198444 (kT*dT*dT*dA*dA*dA*dG*dT*dG*dT*dA*kT*eG*kT*e[5mC]*kA; antisense) [Compound 1198444]	70 % UTC
1198730 (kT*eA*kT*dA*dT*dT*dA*dG*dA*dG*dT*dA*eT*eG*kT*kG; antisense) [Compound 1198730]	57 % UTC
1198443 (kT*dT*dA*dA*dA*dG*dT*dG*dT*dA*dT*kG*eT*k[5mC]*eA*kG; antisense) [Compound 1198443]	39 % UTC

Same assay, conditions: Table 41; SNU-449 cells, 10,000 cells per well, free uptake, 2,000 nM modified oligonucleotide, approximately 48 hours; RTS36584; normalized to RIBOGREEN; Yap1 mRNA relative to untreated control cells

Substance	YAP1 (% UTC)
1198735 (kG*eA*kG*dG*dT*dA*dT*dA*dA*d[5mC]*dT*dG*eG*eG*k[5mC]*kA; antisense) [Compound 1198735]	34 % UTC

Same assay, conditions: Table 42 (separate experiment); SNU-449 cells, 10,000 cells per well, free uptake, 2,000 nM modified oligonucleotide, approximately 48 hours; RTS36584; normalized to RIBOGREEN; Yap1 mRNA relative to untreated control cells

Substance	YAP1 (% UTC)
1198198 (kT*kG*dT*d[5mC]*dT*d[5mC]*dA*dT*dG*d[5mC]*d[5mC]*eT*eT*eA*kT*kA; antisense) [Compound 1198198]	29 % UTC
1198695 (antisense kT*kT*dT*dA*dT*dG*dT*dA*dA*dT*dA*dT*kT*eG*k[5mC]*eA) [Compound 1198695]	75 % UTC
1198709 (k[5mC]*kT*dA*dA*dG*dT*dA*dA*dG*dG*dT*dT*kT*e[5mC]*k[5mC]*e[5mC]; antisense) [Compound 1198709]	29 % UTC
1198700 (kT*kA*dA*dA*dG*dT*dG*dT*dA*dT*dG*dT*k[5mC]*eA*kG*eA; antisense) [Compound 1198700]	26 % UTC
1198207 (kA*kG*dT*dA*dT*dG*dT*dG*dG*d[5mC]*dA*eA*eT*eA*kA*kT; antisense) [Compound 1198207]	91 % UTC
1198649 (kG*kA*dG*dG*dT*dA*dT*dA*dA*d[5mC]*dT*dG*kG*eG*k[5mC]*eA) [Compound 1198649]	27 % UTC
1198682 (antisense k[5mC]*kT*d[5mC]*dT*dT*dA*dT*dA*dT*dG*dG*dT*kT*eT*kT*eG) [Compound 1198682]	25 % UTC

Same assay, conditions: Table 43 experiment; SNU-449 cells, 10,000 cells per well, free uptake, 2,000 nM, approximately 48 hours; RTS36584; Yap1 mRNA normalized to RIBOGREEN, relative to untreated control cells

Substance	YAP1 (% UTC)
1198252 (k[5mC]*kT*d[5mC]*dT*dT*dA*dT*dA*dT*dG*dG*eT*eT*eT*kT*kG; antisense) [Compound 1198252]	26 % UTC
1198270 (kT*kA*dA*dA*dG*dT*dG*dT*dA*dT*dG*eT*e[5mC]*eA*kG*kA; antisense) [Compound 1198270]	52 % UTC
1198218 (kA*kG*dG*dT*dA*dT*dA*dA*d[5mC]*dT*dG*eG*eG*e[5mC]*kA*kA; antisense) [Compound 1198218]	40 % UTC
1198220 (kA*kA*d[5mC]*dA*d[5mC]*dT*dG*dA*dG*dG*dT*eA*eT*eA*kA*k[5mC]; antisense) [Compound 1198220]	89 % UTC

Same assay, conditions: Table 44 experiment; SNU-449 cells, 10,000 cells per well, free uptake, 2,000 nM, approximately 48 hours; RTS36584; Yap1 mRNA normalized to RIBOGREEN, relative to untreated control cells

Substance	YAP1 (% UTC)
1198512 (kA*kA*d[5mC]*dT*d[5mC]*dT*dT*dA*dT*dA*dT*eG*kG*eT*kT*eT; antisense) [Compound 1198512]	62 % UTC
1198534 (kA*kG*dT*dA*dA*dG*dG*dT*dT*dT*d[5mC]*e[5mC]*k[5mC]*eA*kG*eA; antisense) [Compound 1198534]	30 % UTC
1198505 (kA*kT*dT*d[5mC]*dA*dG*dA*dT*dT*dT*dA*eG*kG*eA*kT*eG; antisense) [Compound 1198505]	73 % UTC

Same assay, conditions: Table 45; Yap1 mRNA as percent of untreated control, SNU-449 cells, single dose

Substance	YAP1 (% UTC)
1198944 (k[5mC]*kT*d[5mC]*dT*dT*dA*dT*dA*dT*dG*dG*kT*dT*kT*dT*kG; antisense) [Compound 1198944]	34 % UTC
1198974 (kA*kG*dA*d[5mC]*dT*dA*dA*dG*dT*dA*dA*kG*dG*kT*dT*kT; antisense) [Compound 1198974]	73 % UTC

Same assay, conditions: Table 46; Yap1 mRNA as percent of untreated control, SNU-449 cells, single dose

Substance	YAP1 (% UT)
1198863 (kA*kT*dT*dG*d[5mC]*dA*dA*dT*d[5mC]*dT*dG*kT*e[5mC]*kT*eG*kA; antisense) [Compound 1198863]	65 % UT
1198841 (kT*kG*d[5mC]*dT*dT*dT*dG*dG*dA*dA*dG*kA*eT*k[5mC]*eT*kG; antisense) [Compound 1198841]	116 % UT
1198851 (CAGATTTAGGATGCAT; antisense; chemistry not fully specified) [Compound 1198851]	82 % UT
1198833 (kA*kG*d[5mC]*dA*d[5mC]*dT*dT*dT*dT*dA*d[5mC]*kA*eT*kT*eA*kG; antisense) [Compound 1198833]	54 % UT

Same assay, conditions: Table 48; Yap1 mRNA level relative to untreated control; modified oligonucleotides targeting SEQ ID NO.: 1 and 2

Substance	YAP1 (% UT)
1097224 (antisense k[5mC]*kT*k[5mC]*dT*dT*dA*dT*dA*dT*dG*dG*dT*dT*kT*kT*kG) [Compound 1097224]	22 % UT
1198312 (kG*k[5mC]*kA*d[5mC]*dT*dT*dT*dT*dA*d[5mC]*dA*dT*kT*eA*kG*eG; antisense) [Compound 1198312]	7 % UT
1198297 (kA*kT*kT*dA*dG*dA*dG*dT*dA*dT*dG*dT*kG*eG*k[5mC]*eA; antisense) [Compound 1198297]	8 % UT

Same assay, conditions: Table 49; Yap1 mRNA level relative to untreated control; modified oligonucleotides targeting SEQ ID NO.: 1 and 2

Substance	YAP1 (% UT)
1198565 (antisense kT*kT*kA*d[5mC]*dA*dT*dT*dA*dG*dG*dA*dA*k[5mC]*kA*kA*eG) [Compound 1198565]	53 % UT
1198306 (kA*kA*k[5mC]*dA*d[5mC]*dT*dG*dA*dG*dG*dT*dA*kT*eA*kA*e[5mC]; antisense) [Compound 1198306]	64 % UT
1198368 (kA*kG*kA*d[5mC]*dT*dA*dA*dG*dT*dA*dA*dG*kG*eT*kT*eT; antisense) [Compound 1198368]	79 % UT

Same assay, conditions: Table 50; Yap1 mRNA remaining as percent of untreated control (UT), SNU-449 cells, single dose

Substance	YAP1 (% UT)
1198627 (kT*kT*kA*dG*dA*d[5mC]*dT*dA*dA*dG*dT*dA*kA*kG*kG*eT; antisense) [Compound 1198627]	39 % UT

Same assay, conditions: Table 51; Yap1 mRNA remaining as percent of untreated control (UT), SNU-449 cells, single dose

Substance	YAP1 (% UT)
1197305 (kA*k[5mC]*kT*d[5mC]*mU*dT*dA*dT*dA*dT*dG*dG*dT*kT*kT*kT; antisense) [Compound 1197305]	30 % UT
1197237 (antisense kT*kA*kT*dA*mA*d[5mC]*dT*dG*dG*dG*d[5mC]*dA*dA*kA*kT*kT) [Compound 1197237]	74 % UT
1197315 (kA*kA*k[5mC]*dT*mU*dT*dA*dA*dA*dG*dT*dG*dT*kA*kT*kG; antisense) [Compound 1197315]	116 % UT

Same assay, conditions: Table 52; Yap1 mRNA, modified oligonucleotides targeting SEQ ID NO: 1 and 2

Substance	YAP1 (% UT)
1200840 (k[5mC]*kT*kT*dA*dT*mA*dT*dG*dG*dT*dT*dT*dT*kG*kT*kG; antisense) [Compound 1200840]	48 % UT
1200818 (kA*kA*kG*d[5mC]*dA*mC*dT*dT*dT*dT*dA*d[5mC]*dA*kT*kT*kA; antisense) [Compound 1200818]	31 % UT
1200807 (k[5mC]*kT*kG*dA*dG*mG*dT*dA*dT*dA*dA*d[5mC]*dT*kG*kG*kG; antisense) [Compound 1200807]	69 % UT

Same assay, conditions: Yap1 mRNA, percent of untreated control; modified oligonucleotides targeting SEQ ID NO: 1 and 2; Table 47

Substance	YAP1 (% UT)
1198876 (kT*kA*dA*dA*dG*dT*dG*dT*dA*dT*dG*kT*e[5mC]*kA*eG*kA; antisense) [Compound 1198876]	31 % UT
1197189 (antisense kT*kT*kT*dG*dG*dA*dA*dG*dA*dT*d[5mC]*dT*dG*kA*kA*kA) [Compound 1197189]	71 % UT
1197177 (antisense kA*kT*kT*dG*dT*d[5mC]*dT*d[5mC]*dA*dT*dG*d[5mC]*d[5mC]*kT*kT*kA) [Compound 1197177]	15 % UT
1197188 (antisense kT*kT*kG*dG*dA*dA*dG*dA*dT*d[5mC]*dT*dG*dA*kA*kA*k[5mC]) [Compound 1197188]	96 % UT
1198879 (k[5mC]*kT*dT*dT*dA*dA*dA*dG*dT*dG*dT*kA*eT*kG*eT*k[5mC]; antisense) [Compound 1198879]	29 % UT
1076186 (kA*kT*kT*dT*dA*dG*dG*dA*dT*dG*d[5mC]*dA*dT*kG*kG*kT) [Compound 1076186]	31 % UT
1198878 (kT*kT*dT*dA*dA*dA*dG*dT*dG*dT*dA*kT*eG*kT*e[5mC]*kA; antisense) [Compound 1198878]	42 % UT
1197220 (antisense kT*kA*kA*dG*dG*dT*dT*dT*d[5mC]*d[5mC]*d[5mC]*dA*dG*kA*kT*kT) [Compound 1197220]	32 % UT
